Assay [1] deals with Straub Tail induced by oxymorphone. Briefly: Antagonist activity: antagonism of Straub Tail induced by oxymorphone. The format is in vivo, mice. The conditions noted are these: oxymorphone 2 mg./kg. sc., as free base; for ED50: Mus musculus. As for the experimental part: (§1) . The figures reported are the number of milligrams/ kilogram of body weight of compound that produced an agonist or antagonist effect in 50% of the mice and rats so tested (ED50).
^2 Antagonism of Straub Tail induced by oxymorphone (2 mg./kg. sc.) i
(§2) ^6 All values are reported in terms of the free base even though
(§3) administered as an acid addition salt.

Assay [2] concerns analgesic effect induced by morphine. Kind of assay: animal or person. The conditions noted are these: for ED50: Rattus norvegicus. The class given is in vivo, Rat.
Excerpt: as §1
mg./kg. sc.) as measured by the rat tail flick procedure (Harris, L. S.
and Pierson, A. K., J. Pharmacol. & Expt. Therap., 143, 141; 1964).
as §2, §3

Assay [3] is described as follows: In vivo testing for agonist and/or antagonist properties (overall statement). Further details: species or system mice and rats. The conditions noted are these: in words. The protocol:
(§4) In vivo testing was conducted on the compounds designated herein as dl-XVIc, l-XVIc tartrate, d-XVIc tartrate, dl-XVIe, dl-XVId and dl-XVIb to determine their agonist and/or antagonist properties. The figures reported are the number of milligrams/ kilogram of body weight of compound that produced an agonist or antagonist effect in 50% of the mice and rats so tested (ED50).

Assay [4] concerns phenylquinone induced writhing. Briefly: Agonist activity: mouse phenylquinone writhing. The class given is in vivo. Particulars: for ED50: Mus musculus; for subcutaneous analgesic activity: in words. The protocol:
as §4
^1 A 50 percent reduction in number of phenylquinone induced writhing
(Siegmund, E. A. et al., Proc. Soc. Biol. & Med. 95, 729; 1957).
as §2, §3
In general terms: An intraperitoneal irritant provokes the stretching counted in writhing tests.

Assay [5] has as its system righting reflex loss induced by oxymorphone. Kind of assay: animal or person. The conditions noted are these: for ED50: Rattus norvegicus. The format is in vivo, rats.
[6] abbreviates: PO, read-out: ED50, Antagonist Activity, Oxymorphone Straub Tail, PO.
Where [7] appears, read: SC, read-out: ED50, Antagonist Activity, Oxymorphone Straub Tail, SC.
Where [8] appears, read: SC, morphine 15 mg./kg. sc., as free base, read-out: ED50, Antagonist Activity, Morphine Antagonism Rat Tail Flick, SC.
Setting [9] is: SC, 50 percent reduction in number of writhings, as free base, read-out: ED50, Agonist Activity, Mouse Phenylquinone Writhing, SC.
[10] abbreviates: SC, oxymorphone 1.5 mg./kg. sc., as free base, read-out: ED50, Antagonist Activity, Oxymorphone Narcosis, SC.
Where [11] appears, read: PO, morphine 15 mg./kg. sc., as free base, read-out: ED50, Antagonist Activity, Morphine Antagonism Rat Tail Flick, PO.
Where [12] appears, read: PO, oxymorphone 1.5 mg./kg. sc., as free base, read-out: ED50, Antagonist Activity, Oxymorphone Narcosis, PO.
Where [13] appears, read: PO, 50 percent reduction in number of writhings, as free base, read-out: ED50, Agonist Activity, Mouse Phenylquinone Writhing, PO.
The mark [14] stands for this setting: SC, 50 percent reduction in number of writhings, as free base.

Where two headings read alike, the source gives them in different places.

Usually ED50 stands for the midpoint of the dose-response relation.

As for `C=CC[C@]12CCN(CC3CC3)[C@H](Cc3ccc(O)cc31)[C@@]2(C)O` (relative stereo) [dl-XVIb, 2',9β-Dihydroxy-2-cyclopropylmethyl-5-allyl-9α-methyl-6,7-benzomorphan], the 50% effective dose (ED50) in assay [1] (setting [6]) was 16 mg/kg; in assay [1] (setting [7]) it was 0.12 mg/kg; in assay [2] (setting [8]), 0.018 mg/kg; in assay [4] (setting [9]), greater than 40 mg/kg. Besides, in assay [3], the parenteral antagonist activity result is given as “relatively potent parenteral antagonists”. The subcutaneous analgesic activity result in assay [4] is listed as “weak subcutaneous analgesic activity”.

On to `C=CC[C@]12CCN(CC3CCC3)[C@H](Cc3ccc(O)cc31)[C@@]2(C)O` (relative stereo) [dl-XVIc, 2',9β-Dihydroxy-2-cyclobutylmethyl-5-allyl-9α-methyl-6,7-benzomorphan], for which the median effective dose (ED50) in assay [1] (setting [7]) stood at 0.72 mg/kg; in assay [2] (setting [8]), 0.42 mg/kg; in assay [5] (setting [10]), 0.3 mg/kg; in assay [4] (setting [9]) it was 0.23 mg/kg. Besides, the “agonist and antagonist activity upon parenteral administration” value in assay [3] was “potent agonist and antagonist activity”.

As for `C#CCN1CC[C@@]2(CC=C)c3cc(O)ccc3C[C@@H]1[C@@]2(C)O` (relative stereo) [dl-XVId, 2',9β-Dihydroxy-2-propargyl-5-allyl-9α-methyl-6,7-benzomorphan], the figures for the 50% effective dose (ED50) in assay [1] (setting [7]), in assay [2] (setting [8]) and in assay [4] (setting [9]) were 1.41 mg/kg, 0.14 mg/kg and greater than 40 mg/kg, respectively. Further, the parenteral antagonist activity result in assay [3] is given as “relatively potent parenteral antagonists”. In addition, the subcutaneous analgesic activity entry in assay [4] was “weak subcutaneous analgesic activity”.

As for `CCC[C@]12CCN(CC3CC3)[C@H](Cc3ccc(O)cc31)[C@@]2(C)O` (relative stereo) [dl-XVIe, 2',9β-Dihydroxy-2-cyclopropylmethyl-5-propyl-9α-methyl-6,7benzomorphan], the ED50 in assay [1] (setting [7]) was 0.11 mg/kg; in assay [2] (setting [11]), 6 mg/kg; in assay [2] (setting [8]), 0.03 mg/kg; in assay [5] (setting [10]) it was 0.08 mg/kg; in assay [4] (setting [9]), greater than 40 mg/kg. Further, the parenteral antagonist activity entry in assay [3] is recorded as “relatively potent parenteral antagonists”. In addition, in assay [4], the subcutaneous analgesic activity entry was “weak subcutaneous analgesic activity”.

Turning to `C[C@H]1[C@H]2Cc3ccc(O)cc3[C@]1(C)CCN2CC1CC1` [Cyclazocine], the 50% effective dose (ED50) came to 24 mg/kg in assay [1] (setting [6]); 0.81 mg/kg in assay [1] (setting [7]); 3.7 mg/kg in assay [2] (setting [11]); 0.04 mg/kg in assay [2] (setting [8]); 2.7 mg/kg in assay [5] (setting [12]); 0.12 mg/kg in assay [5] (setting [10]). For the same compound, the ED50 in assay [4] (setting [13]) was 4 mg/kg; in assay [4] (setting [9]), 0.047 mg/kg.

Turning to `C=CCN1CC[C@]23CCCC[C@H]2[C@H]1Cc1ccc(O)cc13` [Levallorphan], the ED50 in assay [1] (setting [6]) worked out at 46 mg/kg; in assay [1] (setting [7]), 0.29 mg/kg; in assay [2] (setting [11]), 12.6 mg/kg; in assay [2] (setting [8]), 0.086 mg/kg; in assay [5] (setting [12]), 5.4 mg/kg; in assay [5] (setting [10]) it was 0.32 mg/kg.

For `C=CCN1CC[C@]23c4c5ccc(O)c4O[C@H]2[C@@H](O)C=C[C@H]3[C@H]1C5` [Nalorphine], the ED50 in assay [1] (setting [6]) was greater than 64 mg/kg; in assay [2] (setting [11]), 22.1 mg/kg; in assay [2] (setting [8]) it was 0.38 mg/kg; in assay [5] (setting [12]), 5.4 mg/kg; in assay [5] (setting [10]), 0.58 mg/kg; in assay [4] (setting [13]), 15 mg/kg. In addition, in assay [4] (setting [9]), the ED50 turned out to be 0.77 mg/kg.

For the compound `C=CCN1CC[C@]23c4c5ccc(O)c4O[C@H]2C(=O)CC[C@@]3(O)[C@H]1C5` [Naloxone], the ED50 in assay [1] (setting [6]) is 13.1 mg/kg; in assay [1] (setting [7]), 0.17 mg/kg; in assay [2] (po, read-out: ED50, Antagonist Activity, Morphine Antagonism Rat Tail Flick, PO) it was 2.7 mg/kg; in assay [2] (sc, read-out: ED50, Antagonist Activity, Morphine Antagonism Rat Tail Flick, SC) it was 0.01 mg/kg; in assay [5] (po, read-out: ED50, Antagonist Activity, Oxymorphone Narcosis, PO), 0.95 mg/kg; in assay [5] (sc, read-out: ED50, Antagonist Activity, Oxymorphone Narcosis, SC), 0.02 mg/kg. In addition, the ED50 in assay [4] (setting [9]) turned out to be 40 mg/kg.

`CC(C)=CCN1CCC2(C)c3cc(O)ccc3CC1C2C` (stereo not drawn) [Pentazocine]: the ED50 was 187 mg/kg in assay [1] (setting [6]); 12 mg/kg in assay [1] (setting [7]); 82.2 mg/kg in assay [2] (setting [11]); 90 mg/kg in assay [5] (setting [12]); 36 mg/kg in assay [4] (setting [13]); 4.9 mg/kg in assay [4] (setting [9]).

For `C=CCC12CCN(CC3CCC3)C(Cc3ccc(O)cc31)C2(C)O.O=C(O)C(O)C(O)C(=O)O` (stereo not drawn) [d-XVIc, d-2',9β-Dihydroxy-9α-methyl-5-allyl-2-cyclobutylmethyl-6,7-benzomorphan tartrate], the “ED50, Antagonist Activity, Oxymorphone Straub Tail, SC” value (from here on “ED50 … Oxymorphone Straub Tail, SC”) in assay [1] (SC) was ~ 40 mg./kg. Moreover, the “ED50, Agonist Activity, Mouse Phenylquinone Writhing, SC” value (shortened to “ED50, Agonist Activity … SC”) in assay [4] (setting [14]) is greater than 40 mg/kg.

Regarding “l-2', 9β-Dihydroxy-9α-methyl-5-propyl-2-cyclobutyl-6,7 -benzomorphan HCl [l-XVIr]”, the “ED50 … Oxymorphone Straub Tail, SC” value in assay [1] (SC) amounted to 1.17 mg/kg. The “ED50, Antagonist Activity, Morphine Antagonism Rat Tail Flick, SC” value in assay [2] (SC, morphine 15 mg./kg. sc., as free base) came out at 0.10 mg/kg. In addition, the “ED50, Agonist Activity … SC” value in assay [4] (setting [14]) was found to be 0.18 mg/kg.

As for “l- 2',9β-Dihydroxy-9α-methyl-5-allyl-2-cyclobutyl-6,7 -benzomorphan tartrate [l-XVIc]”, the “ED50 … Oxymorphone Straub Tail, SC” value in assay [1] (SC) came to 0.43 mg/kg. Further, the “ED50, Antagonist Activity, Morphine Antagonism Rat Tail Flick, PO” value in assay [2] (rat, in vivo, po) came to 14.1 mg/kg. Besides, the “ED50, Antagonist Activity, Morphine Antagonism Rat Tail Flick, SC” value in assay [2] (rat, in vivo, sc) was 0.08 mg/kg. The “ED50, Antagonist Activity, Oxymorphone Narcosis, SC” value in assay [5] (rat, in vivo, sc) amounted to 0.05 mg/kg. Moreover, the “agonist and antagonist activity upon parenteral administration” value in assay [3] is “potent agonist and antagonist activity”. Besides, in assay [4] (PO, 50 percent reduction in number of writhings, as free base), the “ED50, Agonist Activity, Mouse Phenylquinone Writhing, PO” value is 8 mg/kg. Moreover, the “ED50, Agonist Activity … SC” value in assay [4] (setting [14]) stood at 0.055 mg/kg.

(Values after patent publication US3966747A, “9-Hydroxy-6,7-benzomorphans” (Bristol-Myers Company, priority 1974, dated 1976).)
